In patent US20120214862A1, “MODULATION OF FACTOR 7 EXPRESSION” (ISIS Pharmaceuticals, Inc., priority 2009, published 2012):
In the oligonucleotide strings, read from the 5' end, every base follows the letter of its sugar. An asterisk marks phosphorothioate; unmarked linkages are phosphodiester. Other units and linkages are bracketed, terminal groups are in braces. A string of capitals states the bases alone. e = 2'-O-(2-methoxyethyl) (MOE); [5mC] = 5-methylcytosine; d = 2'-deoxy (DNA)

Assays:
Assay type in all cases: cell-based
human Factor 7 mRNA [1] = experiment: Dose-dependent antisense inhibition of human Factor 7 in HepB3 cells, transfection with lipofectin; conditions: lipofectin, HepB3 cells, 16 hours
Outline: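 HepB3 cells (4,000/well) lipofectin-transfected with antisense oligonucleotide at 3.125 or 6.25 up to 100 nM for ~16 h. Factor 7 mRNA measured by real-time RT-PCR with primer probe set RTS 2927, adjusted to RIBOGREEN total RNA; expressed as percent inhibition versus untreated control cells.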

human Factor 7 mRNA [2] = experiment: Dose-dependent antisense inhibition of human Factor 7 in HepB3 cells, transfection with electroporation
Method: (§1) The gapmers were also transfected via electroporation and their dose-dependent inhibition of human Factor 7 mRNA was measured. Cells were plated at a density of 20,000 cells per well and transfected via electroporation with 3.125 μM, 6.25 μM, 12.5 μM, 25 μM, 50 μM, and 100 μM concentrations of antisense oligonucleotide, as specified in Table 15. After a treatment period of approximately 16 hours, RNA was isolated from the cells and Factor 7 mRNA levels were measured by quantitative real-time PCR. Human Factor 7 primer probe set RTS 2927 was used to measure mRNA levels. Factor 7 mRNA levels were adjusted according to total RNA content, as measured by RIBOGREEN®. Results are presented as percent inhibition of Factor 7, relative to untreated control cells.
as §1, with “Cells were” for “The gapmers were also transfected via electroporation and their dose-dependent inhibition of human Factor 7 mRNA was measured. Cells were”, “in Table 16. After a” for “in Table 15. After a”, “cells and human Factor 7” for “cells and Factor 7”

human Factor 7 mRNA [3] = experiment: Antisense inhibition of human Factor 7 mRNA in HepB3 cells, lipofectin, 50 nM, real-time RT-PCR; conditions: HepB3 cells
Outline: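 HepB3 cells were transfected by lipofectin with 50 nM antisense oligonucleotide and harvested after about 24 h. Factor 7 mRNA was measured by real-time RT-PCR (primer probe set RTS 2927 in some runs), normalized to RIBOGREEN total RNA, and reported as percent inhibition versus untreated control.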

[4] = 3.125 μM, 16 hours (Example 7, Table 15)
[5] = 6.25 μM, 16 hours (Example 7, Table 15)
[6] = 12.5 μM, 16 hours (Example 7, Table 15)
[7] = 25 μM, 16 hours (Example 7, Table 15)
[8] = 50 μM, 16 hours (Example 7, Table 15)
[9] = 100 μM, 16 hours (Example 7, Table 15)
[10] = gapmers targeted to nucleobases 15188 to 15211 of SEQ ID NO: 1 (Table 13)
[11] = 3.125 μM, 16 hours (Example 8, Table 16)
[12] = 6.25 μM, 16 hours (Example 8, Table 16)
[13] = 12.5 μM, 16 hours (Example 8, Table 16)
[14] = 25 μM, 16 hours (Example 8, Table 16)
[15] = 50 μM, 16 hours (Example 8, Table 16)
[16] = 100 μM, 16 hours (Example 8, Table 16)
[17] = gapmers (5-10-5, 3-14-3, 2-13-5 MOE) targeted to nucleobases 4868 to 4899 of SEQ ID NO: 1

Row | Substance | percent inhibition of Factor 7 mRNA, relative to untreated control cells (human Factor 7 mRNA [1]; 3.125 nM) [%] | percent inhibition of Factor 7 mRNA, relative to untreated control cells (human Factor 7 mRNA [1]; 12.5 nM) [%] | percent inhibition of Factor 7 mRNA, relative to untreated control cells (human Factor 7 mRNA [1]; 25 nM) [%] | percent inhibition of Factor 7 mRNA, relative to untreated control cells (human Factor 7 mRNA [1]; 50 nM) [%] | percent inhibition of Factor 7 mRNA, relative to untreated control cells (human Factor 7 mRNA [1]; 100 nM) [%] | percent inhibition of Factor 7 mRNA, relative to untreated control cells (human Factor 7 mRNA [1]) [%] | percent inhibition of Factor 7 mRNA, relative to untreated control cells (human Factor 7 mRNA [2]; [4]) [%] | percent inhibition of Factor 7 mRNA, relative to untreated control cells (human Factor 7 mRNA [2]; [5]) [%] | percent inhibition of Factor 7 mRNA, relative to untreated control cells (human Factor 7 mRNA [2]; [6]) [%] | percent inhibition of Factor 7 mRNA, relative to untreated control cells (human Factor 7 mRNA [2]; [7]) [%] | percent inhibition of Factor 7 mRNA, relative to untreated control cells (human Factor 7 mRNA [2]; [8]) [%] | percent inhibition of Factor 7 mRNA, relative to untreated control cells (human Factor 7 mRNA [2]; [9]) [%] | % Inhibition of human Factor 7 mRNA levels (human Factor 7 mRNA [3]; [10]) [%] | percent inhibition of Factor 7 mRNA, relative to untreated control cells (human Factor 7 mRNA [2]; [11]) [%] | percent inhibition of Factor 7 mRNA, relative to untreated control cells (human Factor 7 mRNA [2]; [12]) [%] | percent inhibition of Factor 7 mRNA, relative to untreated control cells (human Factor 7 mRNA [2]; [13]) [%] | percent inhibition of Factor 7 mRNA, relative to untreated control cells (human Factor 7 mRNA [2]; [14]) [%] | percent inhibition of Factor 7 mRNA, relative to untreated control cells (human Factor 7 mRNA [2]; [15]) [%] | percent inhibition of Factor 7 mRNA, relative to untreated control cells (human Factor 7 mRNA [2]; [16]) [%] | % Inhibition of human Factor 7 mRNA levels (human Factor 7 mRNA [3]; [17]) [%] | also measured
1 | 422228 (antisense eT*eG*d[5mC]*dA*dT*dG*dG*dT*dG*dA*dT*dG*d[5mC]*dT*dT*e[5mC]*eT*eG*eA*eA) [compound 422228] | 17 | 43 | 60 | 78 | 90 | 25 | 18 | 33 | 40 | 47 | 71 | 83 | 73 |  |  |  |  |  |  |  | 
2 | 422229 (antisense eA*eT*dG*d[5mC]*dA*dT*dG*dG*dT*dG*dA*dT*dG*d[5mC]*dT*eT*e[5mC]*eT*eG*eA) [compound 422229] | 21 | 53 | 72 | 86 | 92 | 32 | 21 | 30 | 33 | 44 | 65 | 77 | 71 | 30 | 45 | 67 | 79 | 90 | 92 |  | 
3 | 422252 (antisense e[5mC]*eG*d[5mC]*d[5mC]*dG*dG*d[5mC]*dT*d[5mC]*dT*dG*d[5mC]*dT*d[5mC]*dA*eT*e[5mC]*e[5mC]*e[5mC]*e[5mC]) [compound 422252] | 18 | 45 | 61 | 77 | 87 | 17 | 23 | 12 | 26 | 38 | 58 | 80 |  |  |  |  |  |  |  |  | % Inhibition of human Factor 7 mRNA levels (human Factor 7 mRNA [3]; gapmers targeted to nucleobases 13760 to 13789 of SEQ ID NO: 1 (Table 10)): 70%
4 | 422292 (antisense eG*eT*dT*d[5mC]*dT*dG*d[5mC]*dA*dG*dG*dA*dG*d[5mC]*dG*dG*e[5mC]*e[5mC]*eT*eA*eA) [compound 422292] | 13 | 44 | 63 | 81 | 83 | 21 | 36 | 25 | 47 | 59 | 75 | 86 |  | 31 | 40 | 68 | 75 | 82 | 83 | 75 | 
5 | 422295 (antisense e[5mC]*eG*dA*dG*dT*dT*d[5mC]*dT*dG*d[5mC]*dA*dG*dG*dA*dG*e[5mC]*eG*eG*e[5mC]*e[5mC]) [compound 422295] | 17 | 44 | 64 | 80 | 85 | 22 | 10 | 8 | 37 | 58 | 68 | 80 |  |  |  |  |  |  |  | 74 | 
6 | 422296 (antisense e[5mC]*e[5mC]*dG*dA*dG*dT*dT*d[5mC]*dT*dG*d[5mC]*dA*dG*dG*dA*eG*e[5mC]*eG*eG*e[5mC]) [compound 422296] | 21 | 39 | 67 | 78 | 82 | 27 | 62 | 40 | 56 | 56 | 82 | 84 |  | 47 | 44 | 70 | 78 | 80 | 82 | 74 | 
